US7375083B2, “Pharmaceutical compositions for prevention of overdose or abuse” (Shire LLC, priority 2003, dated 2008)

Key:
[1] = Intravenous bioavailability in rats, plasma d-amphetamine by ELISA; settings: relative to amphetamine
[2] = Kitchen tests: release of amphetamine by water, acid, base and heat; settings: heated to boiling for 20-60 minutes
[3] = Oral pharmacokinetics in rats, plasma d-amphetamine by ELISA; settings: for Percent AUC / Percent Cmax: Oral, relative to amphetamine (first value where two are given)
Male Sprague-Dawley rats [4] = test: Locomotor activity after intranasal administration with and without CMC; format: in vivo
Male Sprague-Dawley rats [5] = test: Locomotor activity after intravenous administration; format: in vivo
Male Sprague-Dawley rats [6] = test: Horizontal locomotor activity after oral administration; format: in vivo; settings: oral gavage, 6 mg/kg amphetamine equivalent
Anesthetized Dog = test: Cardiovascular effects after intravenous bolus injection in anesthetized dogs
[7] = Intranasal bioavailability of oxycodone conjugates in rats, LC/MS/MS; settings: 1 mg/kg dose
[8] = Intravenous bioavailability of oxycodone conjugates in rats, LC/MS/MS; settings: 1 mg/kg dose
[9] = 1.0 mg/kg amphetamine equivalent, 1 h
[10] = 1.0 mg/kg, activity above baseline relative to d-amphetamine
[11] = 1.0 mg/kg amphetamine equivalent, 3 h

Compound: CC(Cc1ccccc1)NC(=O)C(N)Cc1ccccc1 (stereo not shown) [F-Amp]
- Percent AUC [1]: 87%
- Percent Cmax [1]: 89%

Compound: CC(Cc1ccccc1)NC(=O)CNC(=O)CNC(=O)CN (stereo not shown) [Gly3-Amp, 2-Amino-N-({[(1-methyl-2-phenyl-ethylcarbomyl)-methyl]-carbomyl}-methyl)-acetamide]
- amphetamine detected after treatment: Baking Powder [2]: 0%
- amphetamine detected after treatment: Baking Soda [2]: 0%
- amphetamine detected after treatment: Tap Water [2]: 0%
- amphetamine detected after treatment: Vinegar [2]: 0%

Compound: CC(Cc1ccccc1)NC(=O)C(O)C(O)C(O)C(O)CO (stereo not shown) [Gulonate-Amp]
- Percent AUC [3]: 1%
- Percent Cmax [3]: 1%
- Percent AUC [1]: 3%
- Percent Cmax [1]: 5%

Compound: C[C@@H](Cc1ccccc1)NC(=O)[C@@H](N)CCCCN [K-Amp]
- Percent AUC [3]: 98%
- Percent Cmax [3]: 55%
- Percent AUC [1]: 3%
- Percent Cmax [1]: 3%

Compound: C[C@H](N)Cc1ccccc1 [d-amphetamine, reference compound]
- Total Activity Counts (1 h) (Male Sprague-Dawley rats [4]; [9]): 858 Counts
- Total Activity Counts Above Baseline (Male Sprague-Dawley rats [4]; [9]): 686 Counts
- Percent d-amphetamine (Male Sprague-Dawley rats [4]; [10]): 100%
- Animals that died or were sacrificed due to acute symptoms of toxicity ([3]; rat, oral, 60 mg/kg): 8 of 12
- Total Activity Counts 3 h (Male Sprague-Dawley rats [5]; [11]): 1659 Counts
- Total Activity Counts Above Baseline (Male Sprague-Dawley rats [5]; [11]): 1355 Counts
- Percent d-amphetamine (Male Sprague-Dawley rats [5]; [10]): 100%
- Peak of activity (Counts per 0.2 h) (Male Sprague-Dawley rats [6]; 5 Hours): 291 Counts per 0.2 h
- Time of Last Count Above 200 per 0.2 h (Male Sprague-Dawley rats [6]; 5 Hours): 2.6 h
- Total Activity Counts (Male Sprague-Dawley rats [6]; 5 Hours): 515 Counts
- Total Activity Counts Above Baseline (Male Sprague-Dawley rats [6]; 5 Hours): 0 Counts
- Peak of activity (Counts per 0.2 h) (Male Sprague-Dawley rats [6]; 12 Hours): 223 Counts per 0.2 h
- Time of Last Count Above 100 per 0.2 h (Male Sprague-Dawley rats [6]; 12 Hours): 6.4 h
- Total Activity Counts (Male Sprague-Dawley rats [6]; 12 Hours): 6622 Counts
- Total Activity Counts Above Baseline (Male Sprague-Dawley rats [6]; 12 Hours): 5686 Counts
- DAP % Change from respective Time 0 (Anesthetized Dog; 0.202 mg/kg, TIME 0): 0%
- LVP % Change from respective Time 0 (Anesthetized Dog; 0.202 mg/kg, TIME 0): 0%
- MAP % Change from respective Time 0 (Anesthetized Dog; 0.202 mg/kg, TIME 0): 0%
- MAP - mean arterial pressure (Anesthetized Dog; 0.202 mg/kg, TIME 0): 84 mmHg
- SAP % Change from respective Time 0 (Anesthetized Dog; 0.202 mg/kg, TIME 0): 0%
- SAP - systolic arterial pressure (Anesthetized Dog; 0.202 mg/kg, TIME 0): 111 mmHg
- DAP % Change from respective Time 0 (Anesthetized Dog; 0.202 mg/kg, TIME 5): 117%
- LVP % Change from respective Time 0 (Anesthetized Dog; 0.202 mg/kg, TIME 5): 107%
- MAP % Change from respective Time 0 (Anesthetized Dog; 0.202 mg/kg, TIME 5): 109%
- MAP - mean arterial pressure (Anesthetized Dog; 0.202 mg/kg, TIME 5): 176 mmHg
- SAP % Change from respective Time 0 (Anesthetized Dog; 0.202 mg/kg, TIME 5): 97%
- SAP - systolic arterial pressure (Anesthetized Dog; 0.202 mg/kg, TIME 5): 218 mmHg
- DAP % Change from respective Time 0 (Anesthetized Dog; 0.202 mg/kg, TIME 15): 45%
- LVP % Change from respective Time 0 (Anesthetized Dog; 0.202 mg/kg, TIME 15): 52%
- MAP % Change from respective Time 0 (Anesthetized Dog; 0.202 mg/kg, TIME 15): 49%
- MAP - mean arterial pressure (Anesthetized Dog; 0.202 mg/kg, TIME 15): 125 mmHg
- SAP % Change from respective Time 0 (Anesthetized Dog; 0.202 mg/kg, TIME 15): 52%
- SAP - systolic arterial pressure (Anesthetized Dog; 0.202 mg/kg, TIME 15): 168 mmHg
- DAP % Change from respective Time 0 (Anesthetized Dog; 0.202 mg/kg, TIME 25): 30%
- LVP % Change from respective Time 0 (Anesthetized Dog; 0.202 mg/kg, TIME 25): 37%
- MAP % Change from respective Time 0 (Anesthetized Dog; 0.202 mg/kg, TIME 25): 31%
- MAP - mean arterial pressure (Anesthetized Dog; 0.202 mg/kg, TIME 25): 110 mmHg
- SAP % Change from respective Time 0 (Anesthetized Dog; 0.202 mg/kg, TIME 25): 34%
- SAP - systolic arterial pressure (Anesthetized Dog; 0.202 mg/kg, TIME 25): 148 mmHg
- DAP % Change from respective Time 0 (Anesthetized Dog; 0.202 mg/kg, TIME 30): 20%
- LVP % Change from respective Time 0 (Anesthetized Dog; 0.202 mg/kg, TIME 30): 30%
- MAP % Change from respective Time 0 (Anesthetized Dog; 0.202 mg/kg, TIME 30): 23%
- MAP - mean arterial pressure (Anesthetized Dog; 0.202 mg/kg, TIME 30): 103 mmHg
- SAP % Change from respective Time 0 (Anesthetized Dog; 0.202 mg/kg, TIME 30): 26%
- SAP - systolic arterial pressure (Anesthetized Dog; 0.202 mg/kg, TIME 30): 140 mmHg
- DAP % Change from respective Time 0 (Anesthetized Dog; 0.404 mg/kg, TIME 0): 0%
- LVP % Change from respective Time 0 (Anesthetized Dog; 0.404 mg/kg, TIME 0): 0%
- MAP % Change from respective Time 0 (Anesthetized Dog; 0.404 mg/kg, TIME 0): 0%
- MAP - mean arterial pressure (Anesthetized Dog; 0.404 mg/kg, TIME 0): 101 mmHg
- SAP % Change from respective Time 0 (Anesthetized Dog; 0.404 mg/kg, TIME 0): 0%
- SAP - systolic arterial pressure (Anesthetized Dog; 0.404 mg/kg, TIME 0): 139 mmHg
- DAP % Change from respective Time 0 (Anesthetized Dog; 0.404 mg/kg, TIME 5): 88%
- LVP % Change from respective Time 0 (Anesthetized Dog; 0.404 mg/kg, TIME 5): 79%
- MAP % Change from respective Time 0 (Anesthetized Dog; 0.404 mg/kg, TIME 5): 85%
- MAP - mean arterial pressure (Anesthetized Dog; 0.404 mg/kg, TIME 5): 187 mmHg
- SAP % Change from respective Time 0 (Anesthetized Dog; 0.404 mg/kg, TIME 5): 73%
- SAP - systolic arterial pressure (Anesthetized Dog; 0.404 mg/kg, TIME 5): 240 mmHg
- DAP % Change from respective Time 0 (Anesthetized Dog; 0.404 mg/kg, TIME 15): 44%
- LVP % Change from respective Time 0 (Anesthetized Dog; 0.404 mg/kg, TIME 15): 43%
- MAP % Change from respective Time 0 (Anesthetized Dog; 0.404 mg/kg, TIME 15): 43%
- MAP - mean arterial pressure (Anesthetized Dog; 0.404 mg/kg, TIME 15): 145 mmHg
- SAP % Change from respective Time 0 (Anesthetized Dog; 0.404 mg/kg, TIME 15): 39%
- SAP - systolic arterial pressure (Anesthetized Dog; 0.404 mg/kg, TIME 15): 193 mmHg
- DAP % Change from respective Time 0 (Anesthetized Dog; 0.404 mg/kg, TIME 25): 17%
- LVP % Change from respective Time 0 (Anesthetized Dog; 0.404 mg/kg, TIME 25): 26%
- MAP % Change from respective Time 0 (Anesthetized Dog; 0.404 mg/kg, TIME 25): 20%
- MAP - mean arterial pressure (Anesthetized Dog; 0.404 mg/kg, TIME 25): 122 mmHg
- SAP % Change from respective Time 0 (Anesthetized Dog; 0.404 mg/kg, TIME 25): 19%
- SAP - systolic arterial pressure (Anesthetized Dog; 0.404 mg/kg, TIME 25): 166 mmHg
- DAP % Change from respective Time 0 (Anesthetized Dog; 0.404 mg/kg, TIME 30): 11%
- LVP % Change from respective Time 0 (Anesthetized Dog; 0.404 mg/kg, TIME 30): 22%
- MAP % Change from respective Time 0 (Anesthetized Dog; 0.404 mg/kg, TIME 30): 16%
- MAP - mean arterial pressure (Anesthetized Dog; 0.404 mg/kg, TIME 30): 117 mmHg
- SAP % Change from respective Time 0 (Anesthetized Dog; 0.404 mg/kg, TIME 30): 16%
- SAP - systolic arterial pressure (Anesthetized Dog; 0.404 mg/kg, TIME 30): 160 mmHg
- DAP % Change from respective Time 0 (Anesthetized Dog; 2.02 mg/kg, TIME 0): 0%
- LVP % Change from respective Time 0 (Anesthetized Dog; 2.02 mg/kg, TIME 0): 0%
- MAP % Change from respective Time 0 (Anesthetized Dog; 2.02 mg/kg, TIME 0): 0%
- MAP - mean arterial pressure (Anesthetized Dog; 2.02 mg/kg, TIME 0): 115 mmHg
- SAP % Change from respective Time 0 (Anesthetized Dog; 2.02 mg/kg, TIME 0): 0%
- SAP - systolic arterial pressure (Anesthetized Dog; 2.02 mg/kg, TIME 0): 158 mmHg
- DAP % Change from respective Time 0 (Anesthetized Dog; 2.02 mg/kg, TIME 5): 48%
- LVP % Change from respective Time 0 (Anesthetized Dog; 2.02 mg/kg, TIME 5): 40%
- MAP % Change from respective Time 0 (Anesthetized Dog; 2.02 mg/kg, TIME 5): 47%
- MAP - mean arterial pressure (Anesthetized Dog; 2.02 mg/kg, TIME 5): 169 mmHg
- SAP % Change from respective Time 0 (Anesthetized Dog; 2.02 mg/kg, TIME 5): 44%
- SAP - systolic arterial pressure (Anesthetized Dog; 2.02 mg/kg, TIME 5): 228 mmHg
- DAP % Change from respective Time 0 (Anesthetized Dog; 2.02 mg/kg, TIME 15): 23%
- LVP % Change from respective Time 0 (Anesthetized Dog; 2.02 mg/kg, TIME 15): 24%
- MAP % Change from respective Time 0 (Anesthetized Dog; 2.02 mg/kg, TIME 15): 23%
- MAP - mean arterial pressure (Anesthetized Dog; 2.02 mg/kg, TIME 15): 142 mmHg
- SAP % Change from respective Time 0 (Anesthetized Dog; 2.02 mg/kg, TIME 15): 24%
- SAP - systolic arterial pressure (Anesthetized Dog; 2.02 mg/kg, TIME 15): 196 mmHg
- DAP % Change from respective Time 0 (Anesthetized Dog; 2.02 mg/kg, TIME 25): 17%
- LVP % Change from respective Time 0 (Anesthetized Dog; 2.02 mg/kg, TIME 25): 19%
- MAP % Change from respective Time 0 (Anesthetized Dog; 2.02 mg/kg, TIME 25): 17%
- MAP - mean arterial pressure (Anesthetized Dog; 2.02 mg/kg, TIME 25): 135 mmHg
- SAP % Change from respective Time 0 (Anesthetized Dog; 2.02 mg/kg, TIME 25): 20%
- SAP - systolic arterial pressure (Anesthetized Dog; 2.02 mg/kg, TIME 25): 189 mmHg
- DAP % Change from respective Time 0 (Anesthetized Dog; 2.02 mg/kg, TIME 30): 13%
- LVP % Change from respective Time 0 (Anesthetized Dog; 2.02 mg/kg, TIME 30): 16%
- MAP % Change from respective Time 0 (Anesthetized Dog; 2.02 mg/kg, TIME 30): 12%
- MAP - mean arterial pressure (Anesthetized Dog; 2.02 mg/kg, TIME 30): 129 mmHg
- SAP % Change from respective Time 0 (Anesthetized Dog; 2.02 mg/kg, TIME 30): 16%
- SAP - systolic arterial pressure (Anesthetized Dog; 2.02 mg/kg, TIME 30): 183 mmHg
- Effect on mean blood pressure after the first (lowest) dose (Anesthetized Dog; dog, IV bolus, 0.202 mg/kg d-amphetamine, equimolar to 0.5 mg/kg L-lysine-d-amphetamine): acute doubling of the mean BP

Compound: Oxycodone Bitartrate
- Oxycodone plus oxymorphone level at 5 Minutes ([7]; 5 min): 2128
- Oxycodone plus oxymorphone level at 15 Minutes ([7]; 15 min): 1003
- Oxycodone plus oxymorphone level at 30 Minutes ([7]; 30 min): 688
- Oxycodone plus oxymorphone level at 60 Minutes ([7]; 60 min): 278
- AUC 0-1 h ([7]; oxycodone plus oxymorphone): 428 ng·h/mL
- AUC Percent OC ([7]; oxycodone plus oxymorphone): 100%
- Cmax ([7]; oxycodone plus oxymorphone): 2128 ng/mL
- Cmax Percent OC ([7]; oxycodone plus oxymorphone): 100%
- Oxycodone plus oxymorphone level at 5 Minutes ([8]; 5 min): 99
- Oxycodone plus oxymorphone level at 15 Minutes ([8]; 15 min): 104
- Oxycodone plus oxymorphone level at 30 Minutes ([8]; 30 min): 94
- Oxycodone plus oxymorphone level at 60 Minutes ([8]; 60 min): 51
- AUC 0-1 h ([8]; oxycodone plus oxymorphone): 82 ng·h/mL
- AUC Percent OC ([8]; oxycodone plus oxymorphone): 100%
- Cmax ([8]; oxycodone plus oxymorphone): 99 ng/mL
- Cmax Percent OC ([8]; oxycodone plus oxymorphone): 100%
